# According to ChEMBL document CHEMBL1201862, “PubChem BioAssay data set” (2004):
#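 Exposure lasted 48 hours, with cells grown in 96-well plates and compounds tested at five concentrations. GI50: concentration for 50% inhibition of growth.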 Calls of active or inactive are those of the source. Cut-off read from the data, not from the text of the source: active = GI50 up to about 1.1 µM and inactive = higher.
# What was measured:
# Assay in all cases: NCI tumour cell line growth inhibition, 48 h
# [1] = test system: HCT-116
# [2] = test system: SW-620
# [3] = test system: UO-31
# [4] = test system: SK-OV-3
# [5] = test system: KM-20L2
# [6] = test system: SNB-78
# [7] = test system: K562
# [8] = test system: OVCAR-8
# [9] = test system: A549
# [10] = test system: RPMI-8226
# [11] = test system: ACHN
# [12] = test system: IGROV-1
# [13] = test system: M19-MEL
# [14] = test system: HCT-15
# [15] = test system: OVCAR-4
# [16] = test system: TK-10
# [17] = test system: COLO 205
# [18] = test system: OVCAR-3
# [19] = test system: U-251
# [20] = test system: 786-0
# [21] = test system: SK-MEL-2
# [22] = test system: MOLT-4
# [23] = test system: HOP-18
# [24] = test system: SNB-75
# [25] = test system: UACC-62
# [26] = test system: NCI-H460
# [27] = test system: HOP-92
# [28] = test system: SF-295
# [29] = test system: EKVX
# [30] = test system: DMS-273
# [31] = test system: OVCAR-5
# [32] = test system: HCC 2998
# [33] = test system: HL-60
# [34] = test system: A498
# [35] = test system: KM12
# [36] = test system: SNB-19
# [37] = test system: HOP-62
# [38] = test system: CAKI-1
# [39] = test system: DLD-1
# [40] = test system: HT-29
# [41] = test system: M14
# [42] = test system: UACC-257
# [43] = test system: LXFL 529
# [44] = test system: SF-268
# [45] = test system: NCI-H23
# [46] = test system: Malme-3M
# [47] = test system: RXF 393
# [48] = test system: CCRF-CEM
# [49] = test system: SF-539
# [50] = test system: SK-MEL-5
# [51] = test system: SN12C
# [52] = test system: LOX IMVI
# [53] = test system: DMS-114
# [54] = test system: SK-MEL-28
# [55] = test system: NCI-H226
# [56] = test system: NCI-H522
compound,measurement,setting,value
CN1CCc2c1nc(-c1ccccc1)c1c2N(C)CC1,GI50,[1],28.1 µM (inactive)
same,GI50,[2],86.9 µM (inactive)
same,GI50,[3],14.7 µM (inactive)
same,GI50,[4],> 100 µM (inactive)
same,GI50,[5],52.8 µM (inactive)
same,GI50,[6],> 100 µM (inactive)
same,GI50,[7],25.4 µM (inactive)
same,GI50,[8],57.4 µM (inactive)
same,GI50,[9],> 100 µM (inactive)
same,GI50,[10],39.6 µM (inactive)
same,GI50,[11],> 100 µM (inactive)
same,GI50,[12],> 100 µM (inactive)
same,GI50,[13],> 100 µM (inactive)
same,GI50,[14],66.4 µM
same,GI50,[15],57 µM (inactive)
same,GI50,[16],> 100 µM (inactive)
same,GI50,[17],34.7 µM (inactive)
same,GI50,[18],21.4 µM (inactive)
same,GI50,[19],> 100 µM (inactive)
same,GI50,[20],66.8 µM (inactive)
same,GI50,[21],> 100 µM (inactive)
same,GI50,[22],38.1 µM (inactive)
same,GI50,[23],3.82 µM (inactive)
same,GI50,[24],> 100 µM (inactive)
same,GI50,[25],> 100 µM (inactive)
same,GI50,[26],71.1 µM (inactive)
same,GI50,[27],29.7 µM (inactive)
same,GI50,[28],30.1 µM (inactive)
same,GI50,[29],> 100 µM (inactive)
same,GI50,[30],53.6 µM (inactive)
same,GI50,[31],> 100 µM (inactive)
same,GI50,[32],99.3 µM (inactive)
same,GI50,[33],31 µM (inactive)
same,GI50,[34],26.1 µM (inactive)
same,GI50,[35],48.4 µM (inactive)
same,GI50,[36],90.4 µM (inactive)
same,GI50,[37],43.8 µM (inactive)
same,GI50,[38],28.1 µM (inactive)
same,GI50,[39],45.3 µM (inactive)
same,GI50,[40],31.1 µM (inactive)
same,GI50,[41],44.8 µM (inactive)
same,GI50,[42],93.5 µM (inactive)
same,GI50,[43],52.2 µM (inactive)
same,GI50,[44],> 100 µM (inactive)
same,GI50,[45],55.7 µM (inactive)
same,GI50,[46],91.4 µM (inactive)
same,GI50,[47],43.9 µM (inactive)
same,GI50,[48],60.5 µM (inactive)
same,GI50,[49],60.8 µM (inactive)
same,GI50,[50],36.1 µM (inactive)
same,GI50,[51],62.7 µM (inactive)
same,GI50,[52],49 µM (inactive)
CCCC(=O)c1ccc2c(ccc(=O)n2C)c1,GI50,[1],> 100 µM (inactive)
same,GI50,[2],> 100 µM (inactive)
same,GI50,[4],> 100 µM (inactive)
same,GI50,[53],31.6 µM (inactive)
same,GI50,[5],> 100 µM (inactive)
same,GI50,[7],> 100 µM (inactive)
same,GI50,[8],> 100 µM (inactive)
same,GI50,[9],> 100 µM (inactive)
same,GI50,[10],> 100 µM (inactive)
same,GI50,[12],> 100 µM (inactive)
same,GI50,[13],> 100 µM (inactive)
same,GI50,[14],> 100 µM
same,GI50,[15],66.7 µM (inactive)
same,GI50,[16],> 100 µM (inactive)
same,GI50,[54],> 100 µM (inactive)
same,GI50,[17],> 100 µM (inactive)
same,GI50,[18],> 100 µM (inactive)
same,GI50,[19],> 100 µM (inactive)
same,GI50,[20],> 100 µM (inactive)
same,GI50,[21],> 100 µM (inactive)
same,GI50,[22],> 100 µM (inactive)
same,GI50,[23],88.1 µM (inactive)
same,GI50,[24],27.2 µM (inactive)
same,GI50,[25],24.3 µM (inactive)
same,GI50,[26],> 100 µM (inactive)
same,GI50,[27],46.2 µM (inactive)
same,GI50,[55],31 µM (inactive)
same,GI50,[28],> 100 µM (inactive)
same,GI50,[29],42.2 µM (inactive)
same,GI50,[30],66.2 µM (inactive)
same,GI50,[31],> 100 µM (inactive)
same,GI50,[32],> 100 µM (inactive)
same,GI50,[33],> 100 µM (inactive)
same,GI50,[34],83 µM (inactive)
same,GI50,[35],> 100 µM (inactive)
same,GI50,[36],> 100 µM (inactive)
same,GI50,[37],> 100 µM (inactive)
same,GI50,[38],52.7 µM (inactive)
same,GI50,[39],> 100 µM (inactive)
same,GI50,[40],> 100 µM (inactive)
same,GI50,[41],> 100 µM (inactive)
same,GI50,[43],84.5 µM (inactive)
same,GI50,[44],> 100 µM (inactive)
same,GI50,[45],> 100 µM (inactive)
same,GI50,[46],> 100 µM (inactive)
same,GI50,[48],> 100 µM (inactive)
same,GI50,[49],> 100 µM (inactive)
same,GI50,[56],31.9 µM (inactive)
same,GI50,[50],72.9 µM (inactive)
same,GI50,[51],> 100 µM (inactive)
same,GI50,[52],> 100 µM (inactive)
